Assay results published in patent US20080108548A1, “Food Composition For Rapidly Attenuating Inflammatory Responses” (priority 2004, published 2008).

Tested on: rats subjected to hemorrhagic shock
Protocol: Using the non-lethal hemorrhagic shock model as described earlier (Luyer et al., Ann. Surg. 239:257-264, 2004; Luyer et al. Shock 21:65-71, 2004) rats were anesthetised, the femoral artery was dissected and cannulated. Mean arterial pressure (MAP) and heart rate were continuously recorded for 50 min. At the time of shock (t=0), 2.1 ml blood per 100 g body weight was taken at a rate of 1 ml/min (34-40% of total blood volume). At 45 min before induction of hemorrhagic shock, rats were subjected to vagotomy or sham vagotomy. In vagotomised animals a ventral cervical incision was made and both vagal trunks exposed. The vagus nerve was ligated at both ends using 4-0 silk suture and divided. In sham-operated animals, both vagal trunks were exposed, but the vagus nerve was not ligated and divided.
Before the experiments, 18 rats were fasted, 18 were fed with low-fat feed (6.9 en % protein, 75.4 en % carbohydrate, 16.7 en % fat) and 18 were fat with a high-fat feed according to the invention (6.9 en % protein, 40.9 en % carbohydrate, 52.2 en % fat). The low-fat and high-fat feeds were isocaloric. 3 ml was given at 18 h before hemorrhagic shock, and 0.75 ml at 2 h and 45 min before hemorrhagic by oral gavage. Fasted and high-fat fed rats underwent vagotomy or sham vagotomy. To investigate the role of CCK, six high-fat fed animas were injected i.v. with CCK-A (500 μg/kg) and CCK-B (500 μg/kg) receptor antagonists and six with control vehicle 25 min before induction of shock. […] At 90 min after hemorrhagic shock, blood was taken and segments of small bowel were harvested for determination of gut permeability. Plasma was separated by centrifugation, frozen immediately and stored until analysis.

[1] = high-fat fed rats given the blocker i.v. 25 min before shock, compared to high-fat controls
[2] = high-fat rats treated with chlorisondamine versus chlorisondamine-treated fasted rats

C[N+](C)(C)CC[N+]1(C)Cc2c(Cl)c(Cl)c(Cl)c(Cl)c2C1 [chlorisondamine]
bacterial translocation to distant organs [1]: increased | plasma endotoxin [1]: elevated | inhibitory effect of high-fat enteral nutrition on circulating TNF-α (high-fat fed sham-vagotomised rats, i.v. 25 min before shock): abrogated | IL-6 levels [2]: comparable | TNF-α levels [2]: comparable | MAP (rat, in vivo): significantly lower | additional hypotension or changes in heart rate (rat, in vivo): did not cause | decrease in MAP associated with administration (rat, in vivo, iv): 100 to 65 mm Hg
